# Results from publication PMC6467267 (Chemical research in toxicology, 2019).
# Where two headings read alike, the source gives them in different places.
# How the values were obtained:
# [1] = target: CjIMPDHΔS (IMPDH from C. jejuni, CBS domain V92-T195 deleted and replaced with G) (Campylobacter jejuni) (UniProt Q0P9J4); test: crystal structure
# [2] = target: CpIMPDH (Cryptosporidium parvum, UniProt Q8T6T2); test: biochemical; format: biochemical
# [3] = target: T1, CjIMPDH (Campylobacter jejuni, UniProt Q0P9J4); test: biochemical; format: biochemical
# [4] = target: human IMPDH2 (Homo sapiens, UniProt P12268); test: IMPDH steady-state kinetics and inhibition; format: biochemical
# [5] = target: T2, BaIMPDH (Bacillus anthracis, UniProt A0A6L8P2U9); test: biochemical; format: biochemical
# T2 sequence (A0A6L8P2U9 1-487): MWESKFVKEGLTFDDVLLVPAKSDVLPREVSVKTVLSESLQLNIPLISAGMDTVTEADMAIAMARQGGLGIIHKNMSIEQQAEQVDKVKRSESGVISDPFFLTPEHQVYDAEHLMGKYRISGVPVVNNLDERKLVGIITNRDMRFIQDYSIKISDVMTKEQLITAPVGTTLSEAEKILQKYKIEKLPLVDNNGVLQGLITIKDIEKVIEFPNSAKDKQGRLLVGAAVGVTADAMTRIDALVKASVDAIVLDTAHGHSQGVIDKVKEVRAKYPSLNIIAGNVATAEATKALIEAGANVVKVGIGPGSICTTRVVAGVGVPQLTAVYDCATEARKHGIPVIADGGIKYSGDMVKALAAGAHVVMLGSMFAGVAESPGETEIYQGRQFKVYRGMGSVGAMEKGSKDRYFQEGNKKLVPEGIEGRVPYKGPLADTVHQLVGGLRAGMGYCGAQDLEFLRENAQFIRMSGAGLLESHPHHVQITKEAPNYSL
# [6] = target: TfIMPDH (Tritrichomonas foetus, UniProt P50097); test: biochemical; format: biochemical
# TfIMPDH, sequence (P50097 whole entry): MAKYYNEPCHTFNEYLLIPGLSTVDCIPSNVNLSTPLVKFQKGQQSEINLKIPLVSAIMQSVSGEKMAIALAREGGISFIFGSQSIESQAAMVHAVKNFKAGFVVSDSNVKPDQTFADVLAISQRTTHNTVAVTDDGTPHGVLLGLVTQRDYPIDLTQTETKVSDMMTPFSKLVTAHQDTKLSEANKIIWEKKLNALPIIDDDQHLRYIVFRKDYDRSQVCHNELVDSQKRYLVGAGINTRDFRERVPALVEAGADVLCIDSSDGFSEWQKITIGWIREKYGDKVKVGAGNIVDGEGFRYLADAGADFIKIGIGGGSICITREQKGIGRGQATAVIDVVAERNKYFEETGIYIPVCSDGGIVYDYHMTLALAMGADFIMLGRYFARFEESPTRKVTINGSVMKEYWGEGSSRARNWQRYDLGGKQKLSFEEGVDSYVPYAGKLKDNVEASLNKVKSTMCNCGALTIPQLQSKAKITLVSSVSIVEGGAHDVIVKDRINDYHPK
# [7] = target: T1, CjIMPDH; test: Product determination and stoichiometry of inhibition; format: biochemical
# [8] = target: T2, BaIMPDH; format: biochemical
# [9] = target: partially purified rat IMPDH; settings: mixed inhibition; cited from earlier work
# [10] = target: T2, BaIMPDH; format: binding; settings: read-out: calculated value of Ki
# [11] = target: T2, BaIMPDH; format: biochemical; remark: listed apart in the source
# [12] = read-out: Km, NAD, varying NAD+, saturating IMP, 25 °C, pH 8
# [13] = uncompetitive substrate inhibition by NAD+
# [14] = read-out: Kis, OxMP, versus IMP, competitive, NAD+ 500 μM
# CpIMPDH, sequence (Q8T6T2 whole entry): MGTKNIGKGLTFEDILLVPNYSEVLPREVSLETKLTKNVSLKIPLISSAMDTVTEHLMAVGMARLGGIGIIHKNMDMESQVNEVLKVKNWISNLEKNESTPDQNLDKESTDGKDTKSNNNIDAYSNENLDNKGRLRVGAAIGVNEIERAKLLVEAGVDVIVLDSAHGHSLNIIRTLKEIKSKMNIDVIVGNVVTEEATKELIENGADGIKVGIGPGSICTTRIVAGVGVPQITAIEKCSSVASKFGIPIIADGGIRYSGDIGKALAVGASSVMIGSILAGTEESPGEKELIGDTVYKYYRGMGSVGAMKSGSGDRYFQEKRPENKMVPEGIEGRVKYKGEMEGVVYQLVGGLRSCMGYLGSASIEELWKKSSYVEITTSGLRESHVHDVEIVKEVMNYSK
molecule,measurement,setting,value
"CjIMPDHΔS (IMPDH from C. jejuni, CBS domain V92-T195 deleted and replaced with G) (from UniProt Q0P9J4) (enzyme)",stoichiometry N,[1],4
NC(=O)c1ccc[n+]([C@@H]2O[C@H](COP(=O)([O-])OP(=O)(O)OC[C@H]3O[C@@H](n4cnc5c(N)ncnc54)[C@H](O)[C@@H]3O)[C@@H](O)[C@H]2O)c1 [NAD],Km,[2]; [12],45 ± 3 µM
same,"Kii, NAD",[2]; [13],6.5 ± 0.5 mM
same,Km,[3]; [12],66 ± 5 µM
same,"Kii, NAD",[3]; [13],4.1 ± 0.3 mM
same,Km,[4]; [12],7 ± 1.7 µM
same,"Kii, NAD",[4]; [13],0.49 ± 0.12 mM
same,"Kii, NAD",[5],8.1 ± 0.5 mM
same,Km,"[5]; read-out: Km, NAD, pH 8",700 ± 40 µM
same,Km,[6]; [12],80 ± 3 µM
same,"Kii, NAD",[6]; [13],5.4 ± 0.3 mM
"Nc1nc2c(ncn2[C@@H]2O[C@H](COP(=O)(O)O)[C@@H](O)[C@H]2O)c(=O)[nH]1 [GMP, guanosine 5’-monophosphate, reference compound]",Ki,[2],21 ± 1 µM
same,Ki,[3],8 ± 0.9 µM
same,Ki,[5],115 ± 7 µM
same,Ki,[6],24 ± 2 µM
"Nc1nc2c(ncn2[C@@H]2O[C@H](COP(=O)(O)O)[C@@H](O)[C@H]2O)c(=O)o1 [OxMP, oxanosine monophosphate]","Kis, GMP /Kis, OxMP",[2]; ratio of Kis values,240
same,Ki,[2]; [14],0.09 ± 0.01 µM
same,hydrolysis of OxMP to UrMP by the enzyme,"[7]; enzyme and OxMP in a 1:1 ratio for 4 h, LC-MS",no free UrMP was detected
same,stoichiometry of inhibition,"[7]; incubated 5 min, initial rates",1 OxMP/active site
same,"Kis, GMP /Kis, OxMP",[3]; ratio of Kis values,160
same,Ki,[3]; [14],0.051 ± 0.006 µM
same,dissociation rate constant koff,[8],0.0019 s⁻¹
same,Ki,[9],1 to 5 µM
same,Ki,[10],0.33 µM
same,hydrolysis of OxMP to UrMP by the enzyme,[11],no free UrMP was detected
same,stoichiometry of inhibition,[11],1 OxMP/active site
same,"Kis, GMP /Kis, OxMP",[4]; ratio of Kis values,280
same,Ki,[4]; [14],0.13 ± 0.02 µM
same,"Kis, GMP /Kis, OxMP",[5],340
same,Ki,"[5]; read-out: Kis, OxMP",0.34 ± 0.05 µM
same,"Kis, GMP /Kis, OxMP",[6]; ratio of Kis values,140
same,Ki,[6]; [14],0.17 ± 0.02 µM
